The results in this text go back to patent US20130317037A1, “METHOD OF ADMINISTRATION AND TREATMENT” (GlaxoSmithKline Intellectual Property Development Limited, priority 2010, published 2013).

Read-outs that look alike come from different tables or passages of the source.

Test [1] relates to HCC1954. Put plainly: Panel A proliferation assay (CellTiter-Glo); HER2 Gain ≧5, KRAS WT, PIK3CA p.H1047R. The format is cell-based, human. Particulars: for IC50: Homo sapiens. Here is the method: (§1) A total of 15 breast cancer cell lines were used in this study. These cells were cultured in RPMI-1640 and supplemented with 5% or 10% fetal bovine serum, 2 mM GlutaMAX™ and 1 mM sodium pyruvate, or in growth medium recommended by the suppliers [American Type Culture Collection, Manassas, Va., USA; Developmental Therapeutics Program, National Cancer Institute, Bethesda, Md., USA; German Collection of Microorganisms and Cell Cultures (DSMZ), Braunschweig, Germany; European Collection of Cell Cultures (ECACC), Porton Down, UK]. Cells of each line were seeded into a 384-well microtiter plate at two cell densities. Low density ranges were 300-1800 cells/well, and a high density was 600 to 3600 cells/well). The plating density was determined by the rate of proliferation of the cell line in the absence of any inhibitor and varied amongst cell lines. High plating densities were double that of low density. Each cell density was plated in triplicate. In total there were 30 wells to be treated with increasing concentrations of Compound B for each cell line at each density. In addition, there were 24 wells of dimethyl sulfoxide (DMSO)-treated controls at each density. After seeding, the cells were incubated at 37° C. in 5% CO2 for 24 hours. Subsequently, Compound B was added to each cell line with 10 concentrations. The dosing solution of Compound B was first prepared in DMSO at a master stock concentration of 10 mM. […] were then made of the stock solution to give a range of working stock concentrations; 10.00 mM, 3.164 mM, 1.001 mM, 316.9 μM, 100.3 μM, 31.74 μM, 10.04 μM, 3.178 μM, 1.006 μM and 318.3 nM. The working stock concentrations of Compound B were then dispensed into the seeded cancer cell lines using a Biomek FX liquid handler to give final treatment concentrations of 0.1% of the stock concentration. A similar volume of DMSO without Compound B was dispensed into the 24 control wells of each seeding density at a concentration of 0.1%. Also, a zero-time plate prepared with a similar cell seeding was read for each cell line at each seeding density immediately after the addition of the DMSO control. After a 72 h incubation, an equal volume of the CellTiter-Glo (CellTiter-Glo Luminescent Cell Viability Assay, Promega, Madison, Wis.) to that of the cell culture medium was added into each well of the plate. After the contents were mixed to induce cell lysis and stabilization, cell luminescence was recorded using a SpectraMax M5^e (Molecular Devices, Sunnyvale, Calif., USA)
(§2) The luminescence of Compound B treated cells was compared relative to the average of the 24 DMSO-treated control wells at each cell density for every concentration of Compound B for all triplicate wells. The percent intensity values were used in model 205 of XLfit in Microsoft Excel to calculate gIC50s for the low and high seeding density (a 4 parameter logistical fit). Specifically, the midpoint of the growth window (the gIC50) falls half way between the number of cells at the time of compound addition (T=0) and the growth of control cells treated with DMSO. The gIC50 value serves as a metric for measuring the inhibition of proliferation in cancer cells. […] Finally, where data quality permits, the Ymin values (defined as the maximum growth inhibition relative to the cell density at Time-zero) were calculated as a measure of cytotoxicity where data were of reasonable quality.
(ATP-based viability assays read luminescence as a measure of living cells.)

Test [2] concerns HCC70. Put plainly: Panel A proliferation assay (CellTiter-Glo); HER2 Loss 1 copy, KRAS WT, PIK3CA WT. Particulars: for IC50: Homo sapiens. The format is cell-based, human. On the procedure:
as §1, §2

Test [3] concerns panel of 51 human breast cell lines. Put plainly: Breast Cell Line Panel B proliferation assay, panel summary. Format: cell-based. Conditions: for IC50: 51 human breast cell lines. On the procedure: From the stock concentration, 8 serial dilutions (1:5) were made with DMSO.
Generally, about 5 μl was added to the 100 μl of cell culture during the treatment, and each dose was replicated in three wells.
Day −1: Plate cells in 100 μl volume in 96 well plate. • Note: Cell number seeded adjusted for growth characteristics, so that at time of assay for proliferation following three-day drug treatment, the control wells should still be in log-growth phase (sub-confluent). Day 0: Drug added to plate for treatment. • A time 0 plate was processed for the proliferation assay to establish a baseline reading at time when drug was added.
LBNL are following the protocols set up by the NCI/NIH DTP Human Tumor Cell Line Screen Process (http://dtp.nci.nih.gov/branches/btb/ivclsp.html) and summarized below.
[(Ti−Tz)/(C−Tz)]×100 for concentrations for which Ti>/=Tz
[(Ti−Tz)/Tz]×100 for concentrations for which Ti<Tz. • C: control growth (vehicle control growth) • Tz: reading at time 0 • Ti: test growth in the presence of drug at the nine concentration levels gIC50: Growth inhibition of 50% is calculated from
[(Ti−Tz)/(C−Tz)]×100=50, • which is the drug concentration resulting in a 50% reduction in the net growth in control cells during the drug incubation. TGI: Total growth inhibition is calculated from
Ti=Tz. • The drug concentration resulting in total growth inhibition (down to the ‘time 0’ baseline). LC50: Net loss of cell growth at 50% is calculated from
[(Ti−Tz)/Tz]×100=−50. • The concentration of drug resulting in a 50% reduction in the cell number at the end of the drug treatment as compared to that at the beginning (time 0) indicating a net loss of cells following treatment.
Values are calculated for each of these three parameters if the level of activity is reached; however, if the effect is not reached or is exceeded, the value for that parameter is expressed as greater or less than the maximum or minimum concentration tested.

For the compound `COc1ncc(-c2ccc3nccc(-c4ccnnc4)c3c2)cc1NS(=O)(=O)c1ccc(F)cc1F` [Compound B, 2,4-difluoro-N-{2-(methyloxy)-5-[4-(4-pyridazinyl)-6-quinolinyl]-3-pyridinyl}benzenesulfonamide], the “High Density Y-Min” value in test [1] (HCC1954, high density, % of cells at T = 0) stood at 18.3%; in test [2] (HCC70, high density, % of cells at T = 0) it was 8.7%. Moreover, the “Low Density Y-Min” value in test [1] (HCC1954, low density, % of cells at T = 0) was 19.8%; in test [2] (HCC70, low density, % of cells at T = 0) it was 9.6%. For the same compound, the IC50 was found to be 3.4 nM in test [1] (HCC1954, high seeding density, 72 h, read-out: High Density gIC50); 3 nM in test [1] (HCC1954, low seeding density, 72 h, read-out: Low Density gIC50); 3.2 nM in test [1] (HCC1954, mean of low and high density, read-out: Mean gIC50); 4.8 nM in test [2] (HCC70, high seeding density, 72 h, read-out: High Density gIC50); 4.6 nM in test [2] (HCC70, low seeding density, 72 h, read-out: Low Density gIC50); 4.7 nM in test [2] (HCC70, mean of low and high density, read-out: Mean gIC50). The IC50 is 28.9 nM in test [3] (read-out: average gIC50), 1.1 to 398 nM in test [3] (read-out: gIC50s across the panel (range)) and 10.4 nM in test [3] (read-out: overall median gIC50). In addition, the “tumor cell lines with gIC50>30 nM” value in test [3] (number of lines / lines tested) is listed as 16/51. For the same compound, the “tumor cell lines with gIC50s<3 nM” value in test [3] (number of lines / lines tested) was 7/51.
